# Experimental data as given in US6392049B1, “Process for preparing 2,4-dihydroxypyridine and 2,4-dihydroxy-3-nitropyridine” (Aventis Pharmaceuticals Inc., priority 1996, dated 2002).
# Where two headings read alike, the source gives them in different places.
# Columns and labels:
# swine coronary arteries = assay: In vitro vasorelaxation in isolated swine coronary arteries; type: cell-based
# Description: Swine coronary arteries are obtained from a local slaughter house, dissected carefully and cleaned of fat, blood and adhering tissue. Rings approximately 2-3 mm wide are cut and transferred to water-jacketed tissue baths (10 mL) filled with warm (37° C.), oxygenated (O2/CO2:95%/5%) Krebs-Henseleit buffer and mounted on L-shaped hooks between stainless steel rods and a force transducer. […] PGF2a, before being exposed to 3 μM PGF2a.
# [1] = test system: normotensive anesthetized rat; assay: Mean arterial blood pressure and heart rate in normotensive anesthetized rat; type: in vivo; details: for Anesthetized Rat HR/ED25: intravenous dose lowering heart rate by 25%; for Anesthetized Rat MAP/ED25: intravenous dose lowering mean arterial pressure by 25%
# Description: Normotensive rats are anesthetized with sodium pentobarbital (50 mg/kg, i.p.) and placed on a heated surgical table. Cannulas are inserted into the femoral artery and veined to allow the measurement of arterial pressure and to facilitate the intravenous administration of test compounds. The animals are allowed to equilibrate for 10 minutes after surgery. Mean arterial pressure is continuously measured and recorded and heart rate is monitored using the arterial pressure pulse to trigger a cardiotachometer. After baseline parameters are established and recorded, increasing doses (1, 3, 10, 30, 100, 300 and 1000 μg/kg) of the compound of Formula I to be tested are administered intravenously. Maximal changes in the cardiovascular parameters are observed after each dose of the adenosine agonist. Only one compound is administered per rat.
# [2] = test system: spontaneously hypertensive rat (SHR); assay: Oral antihypertensive activity in conscious spontaneously hypertensive rat (SHR); type: in vivo; details: D signifies decrease, I signifies increase
# Description: The oral antihypertensive activity of compounds of Formula I are examined in conscious spontaneously hypertensive rats. The rats are anesthetized with sodium phenobarbitol (50 mg/kg i.p.). A telemetry transducer is implanted into the rats abdomen via midline incision. The cannula of the transducer is inserted into the abdominal aorta to allow direct measurement of arterial pressure in the conscious SHR. The transducer is secured to the abdominal wall. After recovery from surgery (minimum of seven days), the SHR are placed on a receiver plate and the transducer/transmitter is activated. Systolic, diastolic and mean arterial pressure and heart rate are recorded for 1.5 hours in the unrestrained conscious rat to establish a stable baseline. Each rat then received a single dose of the compound of Formula I to be tested, or vehicle, and changes in arterial pressure and heart rate are monitored for 20 hours and recorded.
# A1 receptor = biological target: T1, A1 receptor (Rattus norvegicus, UniProt P25099); assay: A1 adenosine receptor binding, displacement of 3H-CHA, whole rat brain membranes; details: 3H-CHA displacement, 25° C., 60 minutes
# T1 construct: using a membrane preparation of whole rat brain; from tissue; host or cells: whole rat brain membranes
# T1 sequence (P25099 1-326): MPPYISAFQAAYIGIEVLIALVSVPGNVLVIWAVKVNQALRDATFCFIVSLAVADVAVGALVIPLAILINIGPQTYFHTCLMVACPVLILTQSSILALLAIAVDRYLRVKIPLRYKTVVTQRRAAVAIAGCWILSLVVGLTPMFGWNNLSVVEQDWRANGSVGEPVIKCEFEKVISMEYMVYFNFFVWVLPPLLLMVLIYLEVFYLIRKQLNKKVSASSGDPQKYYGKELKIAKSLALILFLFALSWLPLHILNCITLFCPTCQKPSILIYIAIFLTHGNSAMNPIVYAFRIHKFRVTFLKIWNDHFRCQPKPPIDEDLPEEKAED
# Description: Non-specific binding is assessed in the presence of 1 mM theophylline.
# (§1) The assays are run in glass test tubes in duplicate at 25° C. Once the membranes are added, the tubes are vortexed and incubated at 25° C. for 60 minutes (A1 assay) or 90 minutes (A2 assay) on a rotary shaker. The assay tubes are vortexed halfway through the incubation and again near the end. The assays are terminated by rapid filtration through 2.4 cm GF/B filters using a Brandel Cell Harvestor. The test tubes are washed three times with cold 50 mM tris-HCl (pH 7.7 or 7.4), with filtration being completed within 15 seconds. The damp filter circles are placed in glass scintillation vials filled with 10 ml of Aquasol II (New England Nuclear). The vials are allowed to shake overnight on a rotary shaker and are placed into a liquid scintillation analyzer for two minute counts. IC50 values for receptor binding, i.e. the concentration at which a compound of Formula I displaced the radiolabeled standard, are obtained using a curve-fitting computer program (RS/1, Bolt, Beranek and Newman, Boston, Mass.).
# A2 receptor [3] = biological target: T2, A2 receptor (Rattus norvegicus, UniProt P30543); assay: A2 adenosine receptor binding, displacement of 3H-CGS 21680, rat brain striatum membranes; details: 3H-CGS 21680 displacement, rat brain striatum membranes, 25° C., 90 minutes; read-out: Adenosine Receptor Binding Activity/IC50 (nM) A2
# T2 construct: using membranes from rat brain striatum; from tissue; host or cells: rat brain striatum membranes
# Description: Non-specific binding is assessed in the presence of 20 μm 2-chloroadenosine.
# as §1
# rat adipocytes = assay: Antilipolytic activity in rat adipocytes (in vitro lipolysis assay, glycerol production); type: cell-based; details: rat adipocytes, norepinephrine-stimulated; for EC50: read-out: EC50 (50% inhibition of glycerol production)
# Description: Adipose tissue is removed from anesthetized rats and rinsed twice in incubation medium (2.09 g sodium bicarbonate and 0.04 g EDTA, disodium salt, in 1 L Krebs buffer). Each rat (300-350g) yields approximately 4 ml of adipose tissue. The adipose tissue (35 mL) is cut into small pieces with scissors and washed with incubation medium (50 mL). The mixture is poured into the barrel of a 50 mL syringe to which is attached a short piece of clamped tubing instead of a needle. The aqueous phase is allowed to drain. A second wash with incubation medium is passed through the syringe. The tissue is added to 50 mL of collagenase solution (collagenase (90 mg), bovine serum albumin (BSA) (500 mg), and 0.1 M calcium chloride solution (1 mL), in incubation medium (50 mL)) in a 1 L bottle. The mixture is shaken in an environmental at 37 ° C. for about 60 minutes under an atmosphere of 95% oxygen/5% carbon dioxide to effect digestion of the tissue. The dispersed cells are poured through 2 layers of cheese cloth into a 100 mL plastic beaker. The undigested clumps in the cloth are rinsed once with incubation medium (20 mL). The cells in the beaker are centrifuged in 2 plastic tubes for 30 seconds at room temperature at 300 rpm. The aqueous phase is aspirated from beneath the loosely packed layer of floating fat cells and discarded. The adipocytes are gently poured into a 250 mL plastic beaker containing 100 mL of rinse solution (1 g BSA per 100 mL incubation medium). After gentle stirring the centrifugation step is repeated. Another wash with rinse solution follows. The cells are pooled and their volume is estimated with a graduated cylinder. The adipocytes are diluted in twice their volume of assay buffer (incubation medium (120 mL), BSA (1.2 g), pyruvic acid (13 mg)).
# The assay is performed in 20 mL plastic scintillation vials and the total assay volume is 4.2 ml. Assay buffer (2.5 mL), diluted adipocytes (1.5 mL), and a solution of the compound to be tested (12.3 μL) adenosine agonist (12.3 μL; varying concentration) is incubated in the environmental shaker for 15 minutes, then the reaction is started with norepinephrine solution (41.2 μL) (10 nM, in a carrier solution containing water (100 mL), BSA (4 mg), and 0.1 M EDTA (20 μL))and adenosine deaminase (1 μg/ml, 41.2 μL). After sixty minutes in the shaker the reaction is terminated by putting the vials on ice. […] The hard lipid layer is removed by aspiration and the aqueous layer is assayed for glycerol (400 μL of sample). The positive control is done in the absence of any adenosine agonist, substituting water in place of the solution to be tested.
# A2 receptor [4] = details: background section; cited from earlier work
# A1 and A2 receptors = details: selectivity, background section; cited from earlier work
# [5] = 50% reduction in tension of rings contracted with 3 μM PGF2a, read-out: Vasorelaxation in Swine Coronary Artery/IC50
# [6] = Sus scrofa, read-out: Vasorelaxation in Swine Coronary Artery/IC50 (μM)
# T2 sequence (P30543 whole entry): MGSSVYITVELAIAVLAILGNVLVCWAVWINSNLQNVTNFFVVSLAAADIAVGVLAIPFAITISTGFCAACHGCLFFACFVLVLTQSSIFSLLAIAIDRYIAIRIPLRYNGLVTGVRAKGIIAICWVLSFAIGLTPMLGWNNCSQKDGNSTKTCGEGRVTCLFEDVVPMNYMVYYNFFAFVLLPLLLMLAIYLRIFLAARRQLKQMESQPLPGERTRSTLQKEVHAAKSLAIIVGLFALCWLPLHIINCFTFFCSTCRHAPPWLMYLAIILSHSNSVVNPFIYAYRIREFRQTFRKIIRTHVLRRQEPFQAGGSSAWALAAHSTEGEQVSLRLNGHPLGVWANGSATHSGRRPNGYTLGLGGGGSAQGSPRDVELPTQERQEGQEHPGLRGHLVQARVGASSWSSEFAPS
smiles,measurement,setting,value
"CCNC(=O)C1CC(n2cnc3c(NCCNc4nc5ccccc5s4)ncnc32)C(O)C1O (racemic) [Example 29, (±)-N^6-[2-(2′-aminobenzothia-zoly)ethyl]carbocyclic adenosine-5′-N-ethyl carboxamide]",IC50,swine coronary arteries; [5],22 µM
same,Anesthetized Rat HR/ED25,[1],0.031 mg/kg
same,Anesthetized Rat MAP/ED25,[1],0.016 mg/kg
same,SHR HR/%,[2]; single oral dose 5 mg/kg,12 (D) %
same,SHR MAP/%,[2]; single oral dose 5 mg/kg,18 (D) %
"OC[C@H]1O[C@@H](n2cnc3c(N[C@@H]4CC=CC[C@H]4c4cccs4)ncnc32)[C@H](O)[C@@H]1O (relative stereo) [Example 4, N6-[trans-2-(thiophen-2-yl)cyclohex-4-en-yl]adenosine]",IC50,A1 receptor,1.66 nM
same,IC50,A2 receptor [3],55 nM
same,IC50,swine coronary arteries; [6],0.73 µM
same,Anesthetized Rat HR/ED25,[1],0.019 mg/kg
same,Anesthetized Rat MAP/ED25,[1],0.013 mg/kg
same,SHR HR/%,[2]; single oral dose 5 mg/kg,20 (D) %
same,SHR MAP/%,[2]; single oral dose 5 mg/kg,28 (D) %
same,melting point,,105 to 110 °C
"CCNC(=O)C1CC(n2cnc3c(N[C@H](C)Cc4ccc(Cl)s4)ncnc32)C(O)C1O (single isomer, unassigned; (-)) [Example 6]",IC50,A1 receptor,2.69 nM
same,IC50,A2 receptor [3],12.9 nM
same,IC50,swine coronary arteries; [5],0.021 µM
same,SHR HR/%,[2]; single oral dose 1 mg/kg,7 (I) %
same,SHR MAP/%,[2]; single oral dose 1 mg/kg,18 (D) %
same,EC50,rat adipocytes,0.76 nM
"CCNC(=O)C1CC(n2cnc3c(NCCc4cccs4)ncnc32)C(O)C1O (single isomer, unassigned; (-)) [Example 26, (−)-N^6-[(thiophen-2″-yl)ethan-2-yl]carbocyclic adenosine-5′-N-ethyl carboxamide]",IC50,A1 receptor,87.1 nM
same,IC50,A2 receptor [3],63.1 nM
same,IC50,swine coronary arteries; [5],0.082 µM
same,Anesthetized Rat HR/ED25,[1],>0.03 mg/kg
same,Anesthetized Rat MAP/ED25,[1],0.004 mg/kg
same,SHR HR/%,[2]; single oral dose 2.5 mg/kg,3 (I) %
same,SHR MAP/%,[2]; single oral dose 2.5 mg/kg,41 (D) %
same,"% Inhibition of glycerol production, 1 μM",rat adipocytes; 1 μM compound versus positive control,96%
same,EC50,rat adipocytes,89 nM
Nc1nc(Nc2ccccc2)nc2c1ncn2[C@@H]1O[C@H](CO)[C@@H](O)[C@H]1O [CV-1808],fold less potent than NECA in affinity for the A2 receptor,A2 receptor [4],10 fold
same,A2/A1 ratio,A1 and A2 receptors,0.19
"CCNC(=O)[C@H]1C[C@@H](n2cnc3c(NC(Cc4cccs4)C(C)C)ccnc32)[C@H](O)[C@@H]1O (stereo partly drawn) [Example 38, [1S-[1a,2b,3b,4a]]-4-[7-[[2-(2-thienyl)-1-isopropylethyl]amino]-3H-imidazo[4,5-b]pyridin-3-yl]-N-ethyl-2,3-dihydroxycyclopentanecarboxamide]",IC50,A1 receptor,5.7 nM
same,IC50,A2 receptor [3],55.5 nM
same,IC50,swine coronary arteries; [6],0.47 µM
same,melting point,,75 to 85 °C
"CCNC(=O)[C@H]1C[C@@H](n2cnc3c(N[C@H](C)Cc4cccs4)ccnc32)[C@H](O)[C@@H]1O [Example 40, [1S-[1a,2b,3b,4a(S*)]]-4-[7-[[2-(2-thienyl)-1-methylethyl]amino]-3H-imidazo[4,5-b]pyridin-3-yl]-N-ethyl-2,3-dihydroxycyclopentane-carboxamide]",IC50,A1 receptor,9.3 nM
same,IC50,A2 receptor [3],68.8 nM
same,IC50,swine coronary arteries; [6],283 µM
same,melting point,,155 to 160 °C
"CCNC(=O)[C@H]1C[C@@H](n2cnc3c(N[C@H](C)Cc4ccc(Cl)s4)ncnc32)[C@@H]2OC(=S)O[C@@H]21 [Example 46, (2S)-2a,3a-dihydroxy-4β-[N6-[2-(5-chloro-2-thienyl)-(1R)-1-methylethyl]amino-9-adenyl]cyclopentane-1β-N-ethylcarboxamide-2,3-thiocarbonate]",IC50,A1 receptor,13.5 nM
same,IC50,A2 receptor [3],81 nM
same,IC50,swine coronary arteries; [6],3.52 µM
same,EC50,rat adipocytes; Adipocyte,4 nM
